Values after ≈ are worked out from the molar mass of the structure shown. Like-named read-outs stand apart in the source and are kept apart here. Non-standard residues stand in square brackets, D forms with d. Residues, ends and D or L forms follow the SMILES beside them.
Experiments:
[1] = test system: preformed S. aureus biofilms; type: cell-based, Staphylococcus aureus
Procedure: The eradicative activity of KLK and mKLK peptides against preformed S. aureus biofilms was evaluated by determining MBEC, as previously described. The 24-h biofilms developed in TSB in a 96-well plate were washed three times with 200 μl PBS solution. Concentrations of the peptides ranging from 2 to 1024 µg/ml were prepared. A volume of 100 μl of each concentration was added to a corresponding well, and plates were incubated for 18–20 h at 37 °C. Then, wells were washed with sterile PBS solution, and 100 μl of PBS solution was added. The wells were thoroughly scraped with a sterile pipette tip, vortexed and sonicated to release the biofilm cells from the well surface. Subsequently, 10 μl of well contents were plated on MHA. Colonies were counted after 20 h at 37 °C. The MBEC was defined as the lowest concentration of peptide that inhibited bacterial regrowth.

24-h S. aureus biofilms = assay: Biofilm dispersal activity (crystal violet); type: cell-based, Staphylococcus aureus
Procedure: To investigate the dispersal activity of KLK and mKLK peptide, the 24-h S. aureus biofilms were prepared in TSB medium in the 96-well plates. Then, the final concentrations of 1×, 2×, and 4 × MIC were prepared for each peptide in the wells. After incubation at 37 °C for 12 h, plates were washed with PBS three times to discard unattached bacteria. Subsequently, plates were stained with 250 μl of 0.5% crystal violet for 20 min at room temperature. Then, the wells were washed and 250 μl 33% acetic acid was added to them. Finally, the absorbance was measured at 570 nm using a microplate reader.

Human red blood cells = assay: in vitro
Procedure: The assay was performed using fresh human blood samples containing citrate phosphate dextrose anticoagulant collected from a blood bank (Iranian Blood Transfusion Organization). Human red blood cells (RBC) were centrifuged at 1700×g for 5 min; then the supernatant was removed and the erythrocyte pellet was diluted 1:100 in PBS to obtain a 1% erythrocyte suspension. […] Then, 50 μl of the 1% erythrocyte suspension and 50 μl of the peptides were mixed and added to wells of a 96-well polypropylene conical bottom microplate and incubated at 37 °C for 1 h. Following centrifugation of the samples at 1700×g for 5 min, 50 μl of the supernatant was transferred to wells of a 96-well flat-bottom plate for the absorbance measurement at 405 nm in a microplate reader. Identical volumes of Triton X-100 (1%) and PBS were used as positive and negative controls, respectively. The selectivity indexes (SI) were also determined as a toxicity indicator.

S. aureus isolates [2] = assay: microbe, parasite or virus in culture; type: cell-based, Staphylococcus aureus
Procedure: (§1) Minimum inhibitory concentrations (MIC) of KLK, mKLK, and vancomycin were determined using microdilution broth assay according to clinical and laboratory standards institute (CLSI) guidelines with some modifications. Briefly, overnight cultures were diluted in Muller-Hinton broth (MHB; Merck, Germany) to achieve a final density of 5 × 10^5 CFU/ml. A volume of 100 μl of bacterial suspension was added to wells of sterile 96-well plates containing 100 μl of two-fold peptide dilutions, ranging from 0.25 to 256 µg/ml. Vancomycin was used as a positive control in this assay. […] MBC was determined by removing samples from wells with no visible growth, serially diluting, and plating on Mueller Hinton (MH) agar plates for CFU counting.

S. aureus isolates [3] = type: cell-based, Staphylococcus aureus
Procedure: as §1

S. aureus strains = assay: Inhibition of bacterial surface attachment (crystal violet); type: cell-based, Staphylococcus aureus
Procedure: To investigate the inhibitory effect of KLK and mKLK peptides on bacterial surface attachment and biofilm formation, the bacterial suspension in TSB with a concentration of 10^7 CFU/ml was prepared from overnight culture. An aliquot of 100 μl of the bacterial suspension was added to wells of 96-well plates containing 100 μl of the peptides solution with concentrations of 1×, 1/2× and 1/4× MIC, resulting in the final peptides concentrations of 1/2×, 1/4× and 1/8× MIC. To investigate the inhibitory effect of the peptides on surface attachment the incubation was performed at 37 °C for 2 h and to evaluate their inhibitory activity on biofilm formation the incubation was performed at 37 °C for 24 h. The wells containing only TSB medium were used as negative controls. After incubation, the contents of the wells were removed and washed three times with PBS and the wells were stained with 200 μl of 0.1% crystal violet for 20 min. The plates were washed again and excess dye was removed. A volume of 200 μl of 95% ethanol was added to each well for 20 min and absorbance was measured at 570 nm by a microplate reader.

[4] = test system: one MRSA and reference strain (ATCC25923); assay: Time-kill kinetics assay
Procedure: The peptide-free control was included for each strain. Following incubation at 37 °C for 0, 0.25, 0.5, 1, 2, 4, 5, and 24 h, each sample was serially diluted, plated onto Mueller–Hinton (MH) agar (Merck, Germany) plates and incubated at 37 °C. The viable plate count method was performed after incubation for 24 h and the counts were expressed as Log CFU/ml[44].

CC(C)C[C@@H](NC(=O)[C@H](N)Cc1c[nH]c2ccccc12)C(=O)N[C@H](Cc1c[nH]c2ccccc12)C(=O)N[C@H](C)C(=O)N[C@H](CC(C)C)C(=O)N[C@H](CC(C)C)C(=O)N[C@H](CCCCN)C(=O)N[C@H](CC(C)C)C(=O)N[C@H](CC(C)C)C(=O)N[C@H](CCCCN)C(=O)N[C@H](CC(C)C)C(=O)N[C@H](CCCCN)C(N)=O [mKLK] (H-[dW][dL][dW][dA][dL][dL][dK][dL][dL][dK][dL][dK]-NH2; N-terminus assumed)
MBEC ([1]; ATCC25923): 64 µg/mL
MBEC ([1]; MRSA-1): 64 µg/mL
MBEC ([1]; MRSA-2): 128 µg/mL
MBEC ([1]; MRSA-3): 64 µg/mL
MBEC ([1]; MSSA-1): 32 µg/mL
MBEC ([1]; MSSA-2): 32 µg/mL
MBEC, range over isolates ([1]; preformed biofilms): 32 to 128 µg/mL
crystal violet absorbance at 570 nm, dispersal activity, Mean±SD (24-h S. aureus biofilms; ATCC25923, 1MIC, control 2.79±0.03): 1.277±0.01
crystal violet absorbance at 570 nm, dispersal activity, Mean±SD (24-h S. aureus biofilms; ATCC25923, 2MIC, control 2.79±0.03): 0.790±0.15
crystal violet absorbance at 570 nm, dispersal activity, Mean±SD (24-h S. aureus biofilms; ATCC25923, 4MIC, control 2.79±0.03): 0.35±0.01
crystal violet absorbance at 570 nm, dispersal activity, Mean±SD (24-h S. aureus biofilms; MRSA-1, 1MIC, control 1.903±0.003): 1.271±0.02
crystal violet absorbance at 570 nm, dispersal activity, Mean±SD (24-h S. aureus biofilms; MRSA-1, 2MIC, control 1.903±0.003): 0.926±0.07
crystal violet absorbance at 570 nm, dispersal activity, Mean±SD (24-h S. aureus biofilms; MRSA-1, 4MIC, control 1.903±0.003): 0.587±0.28
crystal violet absorbance at 570 nm, dispersal activity, Mean±SD (24-h S. aureus biofilms; MRSA-2, 1MIC, control 2.014±0.01): 1.349±0.04
crystal violet absorbance at 570 nm, dispersal activity, Mean±SD (24-h S. aureus biofilms; MRSA-2, 2MIC, control 2.014±0.01): 0.929±0.09
crystal violet absorbance at 570 nm, dispersal activity, Mean±SD (24-h S. aureus biofilms; MRSA-2, 4MIC, control 2.014±0.01): 0.579±0.08
crystal violet absorbance at 570 nm, dispersal activity, Mean±SD (24-h S. aureus biofilms; MRSA-3, 1MIC, control 1.255±0.29): 0.637±0.16
crystal violet absorbance at 570 nm, dispersal activity, Mean±SD (24-h S. aureus biofilms; MRSA-3, 2MIC, control 1.255±0.29): 0.5±0.11
crystal violet absorbance at 570 nm, dispersal activity, Mean±SD (24-h S. aureus biofilms; MRSA-3, 4MIC, control 1.255±0.29): 0.296±0.009
crystal violet absorbance at 570 nm, dispersal activity, Mean±SD (24-h S. aureus biofilms; MSSA-1, 1MIC, control 1.787±0.1): 1.063±0.09
crystal violet absorbance at 570 nm, dispersal activity, Mean±SD (24-h S. aureus biofilms; MSSA-1, 2MIC, control 1.787±0.1): 0.675±0.02
crystal violet absorbance at 570 nm, dispersal activity, Mean±SD (24-h S. aureus biofilms; MSSA-1, 4MIC, control 1.787±0.1): 0.378±0.02
crystal violet absorbance at 570 nm, dispersal activity, Mean±SD (24-h S. aureus biofilms; MSSA-2, 1MIC, control 2.116±0.006): 0.992±0.01
crystal violet absorbance at 570 nm, dispersal activity, Mean±SD (24-h S. aureus biofilms; MSSA-2, 2MIC, control 2.116±0.006): 0.637±0.20
crystal violet absorbance at 570 nm, dispersal activity, Mean±SD (24-h S. aureus biofilms; MSSA-2, 4MIC, control 2.116±0.006): 0.207±0.01
HC50 (Human red blood cells): 118.6 µg/mL
HC50 (Human red blood cells; red cells of human, 1 h): 77.8 µM
MIC (S. aureus isolates [2]; ATCC25923): 4 µg/mL (≈ 2.62 µM)
MIC (S. aureus isolates [2]; MRSA clinical isolates, read-out: MIC): 8 µg/mL (≈ 5.25 µM)
MIC (S. aureus isolates [2]; MRSA-1): 8 µg/mL (≈ 5.25 µM)
MIC (S. aureus isolates [2]; MRSA-2): 8 µg/mL (≈ 5.25 µM)
MIC (S. aureus isolates [2]; MRSA-3): 8 µg/mL (≈ 5.25 µM)
MIC (S. aureus isolates [2]; MSSA-1): 4 µg/mL (≈ 2.62 µM)
MIC (S. aureus isolates [2]; MSSA-2): 4 µg/mL (≈ 2.62 µM)
MIC (S. aureus isolates [2]; three MRSA isolates): 8 µg/mL (≈ 5.25 µM)
MIC (S. aureus isolates [2]; two MSSA isolates): 4 µg/mL (≈ 2.62 µM)
MBC (S. aureus isolates [3]; ATCC25923): 4 µg/mL (≈ 2.62 µM)
MBC (S. aureus isolates [3]; MRSA-1): 8 µg/mL (≈ 5.25 µM)
MBC (S. aureus isolates [3]; MRSA-2): 8 µg/mL (≈ 5.25 µM)
MBC (S. aureus isolates [3]; MRSA-3): 8 µg/mL (≈ 5.25 µM)
MBC (S. aureus isolates [3]; MSSA-1): 4 µg/mL (≈ 2.62 µM)
MBC (S. aureus isolates [3]; MSSA-2): 4 µg/mL (≈ 2.62 µM)
crystal violet absorbance at 570 nm, bacterial attachment, Mean±SD (S. aureus strains; ATCC25923, 1/4MIC, control 2.136±0.01): 1.789±0.01
crystal violet absorbance at 570 nm, bacterial attachment, Mean±SD (S. aureus strains; ATCC25923, 1/8MIC, control 2.136±0.01): 1.952±0.07
crystal violet absorbance at 570 nm, bacterial attachment, Mean±SD (S. aureus strains; MRSA-1, 1/2MIC, control 1.861±0.02): 1.361±0.03
crystal violet absorbance at 570 nm, bacterial attachment, Mean±SD (S. aureus strains; MRSA-1, 1/4MIC, control 1.861±0.02): 1.599±0.08
crystal violet absorbance at 570 nm, bacterial attachment, Mean±SD (S. aureus strains; MRSA-1, 1/8MIC, control 1.861±0.02): 1.723±0.02
crystal violet absorbance at 570 nm, bacterial attachment, Mean±SD (S. aureus strains; MRSA-2, 1/2MIC, control 2.311±0.005): 1.496±0.01
crystal violet absorbance at 570 nm, bacterial attachment, Mean±SD (S. aureus strains; MRSA-2, 1/4MIC, control 2.311±0.005): 1.811±0.19
crystal violet absorbance at 570 nm, bacterial attachment, Mean±SD (S. aureus strains; MRSA-2, 1/8MIC, control 2.311±0.005): 1.906±0.13
crystal violet absorbance at 570 nm, bacterial attachment, Mean±SD (S. aureus strains; MRSA-3, 1/2MIC, control 1.491±0.06): 0.944±0.07
crystal violet absorbance at 570 nm, bacterial attachment, Mean±SD (S. aureus strains; MRSA-3, 1/4MIC, control 1.491±0.06): 1.078±0.07
crystal violet absorbance at 570 nm, bacterial attachment, Mean±SD (S. aureus strains; MRSA-3, 1/8MIC, control 1.491±0.06): 1.119±0.12
crystal violet absorbance at 570 nm, bacterial attachment, Mean±SD (S. aureus strains; MSSA-1, 1/2MIC, control 2.107±0.08): 1.229±0.07
crystal violet absorbance at 570 nm, bacterial attachment, Mean±SD (S. aureus strains; MSSA-1, 1/4MIC, control 2.107±0.08): 1.419±0.01
crystal violet absorbance at 570 nm, bacterial attachment, Mean±SD (S. aureus strains; MSSA-1, 1/8MIC, control 2.107±0.08): 1.592±0.36
crystal violet absorbance at 570 nm, bacterial attachment, Mean±SD (S. aureus strains; MSSA-2, 1/2MIC, control 2.061±0.01): 1.199±0.09
crystal violet absorbance at 570 nm, bacterial attachment, Mean±SD (S. aureus strains; MSSA-2, 1/8MIC, control 2.061±0.01): 1.576±0.46
time after which no regrowth was observed ([4]; ATCC 25923, 1 × MIC (4 μg/ml)): 30 min
reduction in viable cell count ([4]; ATCC 25923, 1 × MIC, during 15 min): ~1 log
time after which no regrowth was observed ([4]; ATCC 25923, 2 × MIC (8 μg/ml)): 15 min
time after which no regrowth was observed ([4]; MRSA, 1 × MIC): 240 min
reduction in viable cell count ([4]; MRSA, 1 × MIC (8 μg/ml), within 2 h): 2 log
